Like-named read-outs stand apart in the source and are kept apart here. One block for each compound: values may come before it.
What was measured:
[1] = format: in vivo, BALB/c nude mice
Protocol: 5-FU was repeatedly intraperitoneally administered to BALB/c nude mice (male, 7-week old, about 25 g in body weight, obtained from Japan SLC, Inc.) at 25 mg/kg, 50 mg/kg, or 100 mg/kg once a day for 4 days. Body weight was measured at the 5th day from the first starting day of administration and later to determine the rate of body weight reduction. The rate of body weight reduction was calculated based on the following equation.
Body weight reduction rate(%)=[{(Body weight at day prior to the date of first 5-FU administration)−(Body weight measured after start of 5-FU administration)}/(Body weight at day prior to the date of first 5-FU administration)]×100
Saline was administered to a control group in place of 5-FU.

[2] = tested on: Human large bowel cancer-derived HT29 cells; experiment: Anti-tumor effect of 64Cu-ATSM and 5-FU in HT29 tumor-bearing mouse (tumor volume); format: in vivo, BALB/c nude mice; conditions: HT29 tumor-bearing mice; 5-FU 25 mg/kg i.p. once a day x4 days; 64Cu-ATSM 37 MBq (74 MBq in Comparative Example 3) via tail vein at final day; measured to day 15; 6 mice
Protocol: (§1) Human large bowel cancer-derived HT29 cells were purchased from ATCC and proliferated for use. […] At the final day of 5-FU administration, 37 MBq (1 mCi) of ^64Cu-ATSM was administered through the tail vein.
(§2) Cu-ATSM. The tumor size in mice was measured 2, 4, 8, 12, or 15 days after starting the administration of 5-FU. Cells obtained from the tumor removed at 2 days after the administration of ^64Cu-ATSM were subjected to the detection of apoptotic cells and CD133-positive (CD133+) cells using flow cytometry (Guava flow cytometry, from Millipore Corporation). The detection of apoptotic cells was performed using Annexin V (Mouse Anti-Human Annexin V FITC, AbD MCA2712F, from Serotec Co., Ltd.). The detection of CD133+cells was performed using an anti-CD133 antibody (CD133/1(A133)-PE, from Miltenyi Biotec K.K.).
The experiment was carried out in the same way as Example 2 except for administering saline in place of ^64Cu-ATSM.
The experiment was carried out in the same way as Example 2 except for administering saline in place of 5-FU.
Saline was administered in place of 5-FU. The dose of ^64Cu-ATSM was 74 MBq (2 mCi). The experiment was carried out in the otherwise same way as Example 2.
The volume of tumor was calculated from the size of tumor measured in Example 2 and Comparative Examples 1 to 3; the change thereof with time is shown in FIG. 1. […]

[3] = tested on: Human large bowel cancer-derived HT29 cells; experiment: Detection of apoptotic cells in removed HT29 tumor by flow cytometry (Annexin V); format: in vivo, BALB/c nude mice; conditions: tumor removed 2 days after 64Cu-ATSM administration, 5-FU 25 mg/kg x4 days, 64Cu-ATSM 37 or 74 MBq, 6 mice
Protocol: as §1, §2
In FIG. 2, the results of percentages of apoptotic cells in the removed tumor are expressed in average and standard deviation for 6 mice.

[4] = tested on: CD133+ cells in HT29 tumor; format: in vivo, BALB/c nude mice; conditions: tumor removed 2 days after 64Cu-ATSM administration; 5-FU 25 mg/kg x4 days, 64Cu-ATSM 37 or 74 MBq; anti-CD133 flow cytometry; 6 mice
Protocol: as §1, §2
In FIG. 3, the results of percentages of CD133+cells in the removed tumor are expressed in average and standard deviation for 6 mice.

[5] = tested on: HT29 cells; experiment: Anti-tumor effect of repeated administration of 64Cu-ATSM and 5-FU in HT29 tumor-bearing mouse (tumor volume); format: in vivo, BALB/c nude mice; conditions: HT29 tumor-bearing mice; two cycles (start day 1 and 25th day) of 5-FU 25 mg/kg i.p. x4 days and 64Cu-ATSM 37 MBq at final day; to day 34; 6 mice
Protocol: The HT29 tumor-bearing model was prepared in the same way as Example 2; 1 week after the implantation of HT29 cells, 5-FU was repeatedly intraperitoneally administered at 25 mg/kg once a day for 4 days; and at the final day (4th day) of 5-FU administration, 37 MBq (1 mCi) of ^64Cu-ATSM was administered through the tail vein. The administration of 5-FU was again started at the 25th day from the start of 5-FU administration, with 25 mg/kg thereof repeatedly administered once a day for 4 days. At the final day of 5-FU administration, 37 MBq (1 mCi) of ^64Cu-ATSM was then administered through the tail vein. […] The tumor size in mice was measured 2, 4, 8, 12, 14, 16, 20, 24, 27, 31, or 34 days after starting the administration of 5-FU.
The experiment was carried out in the same way as Example 7 except for administering saline in place of ^64Cu-ATSM.
The experiment was carried out in the same way as Example 7 except for administering saline in place of 5-FU.
The volume of tumor was calculated from the size of tumor measured in Example 7 and Comparative Examples 6 and 7; the change thereof with time is shown in FIG. 5. In FIG. 5, the tumor volume at the day prior to the day of the first start of 5-FU administration was set to 100%, and the percentage based thereon was given. In FIG. 5, data are expressed in average and standard deviation for 6 mice.

[6] = tested on: HT29 cells; experiment: Anti-tumor effect of 64Cu-ATSM and 6TG or PT in HT29 tumor-bearing mouse (tumor volume); format: in vivo, BALB/c nude mice; conditions: HT29 tumor-bearing mice; 6TG 12.5 mg/kg or PT 200 mg/kg i.p. once a day x4 days; 64Cu-ATSM 37 MBq via tail vein at final day (74 MBq alone in Comparative Example 3); to day 15; 6 mice
Protocol: (§3) The HT29 tumor-bearing model was prepared in the same way as Example 2, and 1 week after the implantation of HT29 cells, 6TG was repeatedly intraperitoneally administered at 12.5 mg/kg once a day for 4 days. At the final day of 6TG administration, 37 MBq (1 mCi) of ^64Cu-ATSM was administered through the tail vein. […] The tumor size in mice was measured 2, 4, 8, 12, or 15 days after starting the administration of 6TG.
The experiment was carried out in the same way as Example 5 except for administering saline in place of ^64Cu-ATSM.
as §3, with “PT” for “6TG”, “200” for “12.5”, “PT.” for “6TG.”
The experiment was carried out in the same way as Example 6 except for administering saline in place of ^64Cu-ATSM.
The volume of tumor was calculated from the size of tumor measured in Examples 5 and 6 and Comparative Examples 4 and 5; the change thereof with time is shown in FIG. 4. In FIG. 4, the tumor volume at the day prior to the day of the start of 6TG or PT administration was set to 100%, and the percentage based thereon was given. In FIG. 4, data are expressed in average and standard deviation for 6 mice. In addition, the results of Example 2 and Comparative Examples 1 to 3 were shown together in FIG. 4.

[7] = Study of dose of 6TG using nude mouse (rate of body weight reduction, death)
Protocol: 6TG was repeatedly intraperitoneally administered to BALB/c nude mice (male, 7-week old, about 25 g in body weight, obtained from Japan SLC, Inc.) at 12.5 mg/kg, 25 mg/kg, or 50 mg/kg once a day for 4 days. Body weight was measured at the 5th day from the first starting day of administration and later to determine the rate of body weight reduction. The rate of body weight reduction was calculated based on the following equation.
Body weight reduction rate(%)=[{(Body weight at day prior to the date of first 6TG administration)−(Body weight measured after start of 6TG administration)}/(Body weight at day prior to the date of first 6TG administration)]×100
Saline was administered to a control group in place of 6TG. In Table 2, they were expressed in average and standard deviation for 4 mice.

[8] = Study of dose of PT using nude mouse (rate of body weight reduction); format: in vivo, BALB/c nude mice; conditions: for Rate of Body Weight Reduction (%): average ± SD, 4 mice
Protocol: PT was repeatedly intraperitoneally administered to BALE/c nude mice (male, 7-week old, about 25 g in body weight, obtained from Japan SLC, Inc.) at 25, 50, 100, or 200 mg/kg once a day for 4 days. Body weight was measured at the 5th day from the first starting day of administration and later to determine the rate of body weight reduction. The rate of body weight reduction was calculated based on the following equation.
Body weight reduction rate(%)=[{(Body weight at day prior to the date of first PT administration)−(Body weight measured after start of PT administration)}/(Body weight at day prior to the date of first PT administration)]×100
Saline was administered to a control group in place of PT. In Table 3, they were expressed in average and standard deviation for 4 mice.

[9] = tested on: CD133-positive cells; conditions: Yoshii et al. (2010), Nucl. Med. Biol. 37, 395-404; cited from earlier work
[10] = tested on: CD133-positive cells in tumor; conditions: Yoshii et al. (2011), Nucl. Med. Biol. 38, 151-157; cited from earlier work
[11] = tested on: tumor; conditions: compared with 18FDG; Japanese Patent Laid-Open No. 2010-13380; cited from earlier work

Compound: O=c1[nH]cc(F)c(=O)[nH]1 [5-FU, 5-Fluorouracil]
death of mice ([1]; 5-FU 50 mg/kg i.p. once a day for 4 days): died at the 10th or 11th day from administration | death of mice ([1]; 5-FU 100 mg/kg i.p. once a day for 4 days): died at the 7th or 8th day from administration | tumor volume, change with time (FIG. 1; % of volume at day prior to start of 5-FU administration) [2]: did not suppress the proliferation of tumor | percentage of apoptotic cells in tumor (FIG. 2) [3]: apoptosis of tumor cells was confirmed | percentage of CD133+ cells in tumor (FIG. 3) [4]: can kill CD133+cells | tumor volume, change with time (FIG. 5; % of volume at day prior to first start of 5-FU administration) [5]: could hardly suppress the proliferation of tumor

Compound: Nc1nc2nc[nH]c2c(=S)[nH]1 [6TG, 6-Thioguanine]
tumor volume, change with time (FIG. 4; % of volume at day prior to start of 6TG or PT administration) [6]: could not suppress the proliferation of tumor | death of mice ([7]; 6TG 25 mg/kg i.p. once a day for 4 days): died at the 13th to 15th day from administration | death of mice ([7]; 6TG 50 mg/kg i.p. once a day for 4 days): died at the 6th to 8th day from administration

Rate of Body Weight Reduction (%) ([8]; PT 25 mg/kg/day i.p. once a day for 4 days, 5th Day): −8.42 ± 12.36% | Rate of Body Weight Reduction (%) ([8]; PT 25 mg/kg/day i.p. x4 days, 9th Day): −12.11 ± 13.3% | Rate of Body Weight Reduction (%) ([8]; PT 25 mg/kg/day i.p. x4 days, 12th Day): −10.94 ± 12.04% | Rate of Body Weight Reduction (%) ([8]; PT 25 mg/kg/day i.p. x4 days, 16th Day): −14.11 ± 11.25% | Rate of Body Weight Reduction (%) ([8]; PT 25 mg/kg/day i.p. x4 days, 18th Day): −15.38 ± 9.65% | Rate of Body Weight Reduction (%) ([8]; PT 50 mg/kg/day i.p. x4 days, 5th Day): −3.94 ± 7.7% | Rate of Body Weight Reduction (%) ([8]; PT 50 mg/kg/day i.p. x4 days, 9th Day): −12.12 ± 5.33% | Rate of Body Weight Reduction (%) ([8]; PT 50 mg/kg/day i.p. x4 days, 12th Day): −12.91 ± 7.21% | Rate of Body Weight Reduction (%) ([8]; PT 50 mg/kg/day i.p. x4 days, 16th Day): −16.03 ± 8.57% | Rate of Body Weight Reduction (%) ([8]; PT 50 mg/kg/day i.p. x4 days, 18th Day): −15.41 ± 11.86% | Rate of Body Weight Reduction (%) ([8]; PT 100 mg/kg/day i.p. x4 days, 5th Day): −5.03 ± 8.95% | Rate of Body Weight Reduction (%) ([8]; PT 100 mg/kg/day i.p. x4 days, 9th Day): −12.82 ± 9.29% | Rate of Body Weight Reduction (%) ([8]; PT 100 mg/kg/day i.p. x4 days, 12th Day): −16.86 ± 8.46% | Rate of Body Weight Reduction (%) ([8]; PT 100 mg/kg/day i.p. x4 days, 16th Day): −20.08 ± 9.11% | Rate of Body Weight Reduction (%) ([8]; PT 100 mg/kg/day i.p. x4 days, 18th Day): −21.05 ± 6.18% | Rate of Body Weight Reduction (%) ([8]; PT 200 mg/kg/day i.p. x4 days, 5th Day): −5.75 ± 9.93% | Rate of Body Weight Reduction (%) ([8]; PT 200 mg/kg/day i.p. x4 days, 9th Day): −15.25 ± 10.49% | Rate of Body Weight Reduction (%) ([8]; PT 200 mg/kg/day i.p. x4 days, 12th Day): −18.1 ± 9.64% | Rate of Body Weight Reduction (%) ([8]; PT 200 mg/kg/day i.p. x4 days, 16th Day): −18.1 ± 9.64% | Rate of Body Weight Reduction (%) ([8]; PT 200 mg/kg/day i.p. x4 days, 18th Day): −17.19 ± 9.86% | rate of body weight reduction ([8]; PT, all groups (25, 50, 100, 200 mg/kg once a day for 4 days), even at the 18th day): ≤ 10%
Compound: Nc1nc2[nH]cc(CCc3ccc(C(=O)N[C@@H](CCC(=O)O)C(=O)O)cc3)c2c(=O)[nH]1 [PT, Pemetrexed]
tumor volume, change with time (FIG. 4; % of volume at day prior to start of 6TG or PT administration) [6]: could not suppress the proliferation of tumor

Compound: diacetyl-bis(N4-methylthiosemicarbazone) copper complex [^64Cu-ATSM]
tumor volume, change with time (FIG. 1; % of volume at day prior to start of 5-FU administration) [2]: suppressed the proliferation of tumor depending on the dose thereof | percentage of apoptotic cells in tumor (FIG. 2) [3]: apoptosis of tumor cells was confirmed | percentage of CD133+ cells in tumor (FIG. 3) [4]: can kill CD133+cells | tumor volume, change with time (FIG. 4; % of volume at day prior to start of 6TG or PT administration) [6]: could suppress the proliferation of tumor depending on the dose thereof | tumor volume, change with time (FIG. 5; % of volume at day prior to first start of 5-FU administration) [5]: suppressed the proliferation of tumor depending on the dose thereof | accumulation in CD133-positive cells [9]: accumulates in CD133-positive cells | amount of CD133-positive cells in tumor and tumor size [10]: decreased the amount of CD133-positive cells in tumor to shrink the tumor | sites of accumulation in tumor [11]: accumulate in sites different from those for ^18FDG in tumor

— patent US20140186261A1, “ANTI-TUMOR AGENT AND ANTI-TUMOR KIT” (NIHON MEDI-PHYSICS CO., LTD., priority 2012, published 2014)
